According to patent publication US20120309739A1, “AKT / PKB INHIBITORS” (ALMAC DISCOVERY LIMITED, priority 2009, published 2012):
Counter-ions that a name gives are not always drawn.

Legend:
AKT3 = target: T1, AKT3 (Homo sapiens, UniProt Q9Y243); assay: AKT Kinase Assay (IMAP fluorescent polarisation) vs AKT3; type: biochemical; details: activated AKT3, FAM Crosstide substrate
T1 construct: purchased SignalChem
Summary of the method: (§1)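 IMAP fluorescence-polarisation read-out (485/528 nm) of 5′FAM-Crosstide phosphorylation; IC50 fitted by non-linear regression from % inhibition against vehicle. Fourteen-point half-log compound dilutions sat 45 min at room temperature with activated isoform at linear-range amount. ATP and substrate followed for 1 h, then a 1 h binding-reagent stop.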

[1] = system: PC3 and/or LnCaP cell lines; assay: In vitro cell proliferation assay (Cell Titre Glo); type: cell-based; details: Homo sapiens, 72 hours, read-out: inhibition of proliferation IC50
Experimental: Testing of the compounds was also performed using in vitro cell proliferation assays:
Cell Titre Glo (Promega) is a highly sensitive homogeneous reagent used to determine the viability of cells. The reagent uses a stable form of luciferase to measure ATP as an output of viability. The luminescent values generated in the assay are directly proportional to the number of viable cells in your assay.
The following materials were used: White, clear bottomed 96 well assay plates (Costar); Cell titre Glo reagents; LnCaP (ECACC) cells grown in RPMI medium (Invitrogen) supplemented with 10 mM HEPES (Invitrogen), 1 mM Sodium pyruvate (Invitrogen), 2 mM L-Glutamine (Invitrogen) and 10% Foetal calf serum (Invitrogen); PC3 (ECACC) cells grown in RPMI medium supplemented with 10% Foetal calf serum (Invitrogen); Trypsin (Invitrogen); PBS (Invitrogen); Biotek Synergy 4 Hybrid Plate reader; 96 well plate shaker (Stuart SSL5); Eppendorf 5414 desk-top centrifuge; Beckman Coulter cell counter Z1 single threshold system.
Prostate cell lines, PC3 and LnCaP, were washed, detached and re-suspended in their respective fresh media. The cells were pelleted by centrifugation (Eppendorf 5414) and spent supernatant discarded. The cells were re-suspended by vortex mixing, counted and seeded into clear bottom white 96 well plates at a density of 5000 cells per well. The cells were incubated (Sanyo) overnight at 37° C. ([…]/5% CO2), and next day treated with increasing concentrations of test compound formulated in fresh medium. The plates were returned to the incubator for 72 hours.
Cell Titre Glo (Promega) was prepared by mixing the supplied reagents as per manufacturer's instructions and left to stand at room temperature. The cell plates were removed from the incubator and 80 μl of the Cell Titre Glo solution added to each well. The plate was shaken for five minutes to ensure homogenous mixing of reagents and cells, then left to stand for ten minutes at room temperature.
The cell viability post compound treatment was determined by the luminescent intensity emitted from the drug treated wells in the plate. In brief, the assay plate was placed in the Biotex Synergy 4 Hybrid plate reader and the luminescence read in each well. The compound treated wells were compared to vehicle treated wells and the % inhibition of cell viability calculated.
The data was analysed using GraphPad Prism, with IC50 values generated using non-linear regression of the data set.

AKT1 = target: T2, AKT1 (Homo sapiens, UniProt P31749); assay: AKT Kinase Assay (IMAP fluorescent polarisation) vs AKT1; type: biochemical; details: activated AKT1, FAM Crosstide substrate
T2 construct: purchased SignalChem
Summary of the method: as §1

AKT2 = target: T3, AKT2 (Homo sapiens, UniProt P31751); assay: AKT Kinase Assay (IMAP fluorescent polarisation) vs AKT2; type: biochemical; details: activated AKT2, FAM Crosstide substrate
T3 construct: purchased SignalChem
Summary of the method: as §1

AKT phosphorylation = assay: Phosphorylation status of AKT/PI3K pathway via western blotting; type: cell-based; details: for 48 h at 10 μM
Excerpt: Analysis of Compound Effects on AKT Signalling Pathways
Phosphorylation status of various members of the AKT/PI3K pathway were investigated via western blotting.
Materials Required for this Assay
20× Running buffer (Invitrogen); Rainbow marker ladder (GE Healthcare); Reducing buffer (Invitrogen); 20× Transfer buffer (Invitrogen); 4-12% Bis-Tris Gels (Invitrogen); Filter paper (Whatman); Nitrocellulose (Amersham); ECL plus detection reagents (GE Healthcare); Radiographic film (Kodak); Biorad Protein determination reagent (Biorad); AKT pathway signalling antibodies (Cell Signalling)
LnCaP and PC3 cell lines were washed, detached and re-suspended in fresh medium. They were seeded in 90 mm^2 dishes and incubated overnight ([…]/5% CO2) to allow adherence. […]
The medium was removed and the cells placed on ice and washed in PBS. […] The resultant supernatant was assayed for protein content using the Bradford method (Biorad) and equal quantities of protein calculated and heated in sample reducing buffer to 95° C. for ten minutes. […]
The membranes were used to determine difference in total AKT, pSer473 AKT, pGSK3β and total GSK3β (all sourced from Cell Signalling). […] The membranes were washed three times in PBS and incubated with the respective secondary antibodies (Sigma Aldrich) for two hours and the proteins were detected using ECL plus detection reagents (GE Healthcare).

T3 sequence (P31751 whole entry): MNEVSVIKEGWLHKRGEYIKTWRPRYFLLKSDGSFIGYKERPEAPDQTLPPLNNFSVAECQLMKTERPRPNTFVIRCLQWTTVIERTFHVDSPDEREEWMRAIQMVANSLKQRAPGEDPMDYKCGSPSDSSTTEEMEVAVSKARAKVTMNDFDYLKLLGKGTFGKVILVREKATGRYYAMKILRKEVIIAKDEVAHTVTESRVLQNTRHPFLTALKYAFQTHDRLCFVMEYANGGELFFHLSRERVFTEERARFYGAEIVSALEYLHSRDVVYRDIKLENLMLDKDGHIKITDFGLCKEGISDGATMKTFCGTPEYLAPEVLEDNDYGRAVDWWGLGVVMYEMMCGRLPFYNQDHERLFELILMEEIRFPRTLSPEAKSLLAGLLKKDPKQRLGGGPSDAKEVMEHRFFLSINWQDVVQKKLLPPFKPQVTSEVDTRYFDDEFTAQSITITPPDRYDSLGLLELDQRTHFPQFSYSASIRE
T2 sequence (P31749 whole entry): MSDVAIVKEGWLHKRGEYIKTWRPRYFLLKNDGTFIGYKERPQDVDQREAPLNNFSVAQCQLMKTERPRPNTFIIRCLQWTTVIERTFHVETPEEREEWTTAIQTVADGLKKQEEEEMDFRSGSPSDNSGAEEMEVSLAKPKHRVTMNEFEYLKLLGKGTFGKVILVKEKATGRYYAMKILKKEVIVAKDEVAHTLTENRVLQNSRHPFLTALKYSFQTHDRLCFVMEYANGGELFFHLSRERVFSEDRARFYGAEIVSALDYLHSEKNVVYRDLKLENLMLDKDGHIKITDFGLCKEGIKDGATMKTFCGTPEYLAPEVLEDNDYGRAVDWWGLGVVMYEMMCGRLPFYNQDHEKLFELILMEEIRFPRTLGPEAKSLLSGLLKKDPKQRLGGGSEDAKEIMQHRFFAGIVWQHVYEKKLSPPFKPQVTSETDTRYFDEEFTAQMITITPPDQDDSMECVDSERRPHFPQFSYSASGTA
T1 sequence (Q9Y243 whole entry): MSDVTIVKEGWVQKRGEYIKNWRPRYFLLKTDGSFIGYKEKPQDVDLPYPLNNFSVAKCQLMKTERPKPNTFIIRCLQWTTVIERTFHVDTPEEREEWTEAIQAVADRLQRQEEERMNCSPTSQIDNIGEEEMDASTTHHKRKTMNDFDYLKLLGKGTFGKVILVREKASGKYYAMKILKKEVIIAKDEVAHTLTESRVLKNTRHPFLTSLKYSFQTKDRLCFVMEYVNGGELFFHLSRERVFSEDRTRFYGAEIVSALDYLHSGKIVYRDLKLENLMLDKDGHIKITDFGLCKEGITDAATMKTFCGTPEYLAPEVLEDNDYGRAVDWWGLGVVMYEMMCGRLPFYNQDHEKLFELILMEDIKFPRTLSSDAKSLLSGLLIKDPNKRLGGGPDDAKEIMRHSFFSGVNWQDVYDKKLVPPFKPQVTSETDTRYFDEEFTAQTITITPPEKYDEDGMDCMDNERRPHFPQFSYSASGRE

| SMILES | IC50 (AKT3) [nM] | IC50 [1] [nM] | IC50 (AKT1) [nM] | IC50 (AKT2) [nM] | inhibition of AKT phosphorylation (AKT phosphorylation) |
| --- | --- | --- | --- | --- | --- |
| COc1nc(OCCO)nc2oc(-c3ccc(C4(N)CCC4)cc3)c(-c3ccccc3)c12 [Example 36, 2-((6-(4-(1-Aminocyclobutyl)phenyl)-4-methoxy-5-phenylfuro[2,3-d]pyrimidin-2-yl)oxy)ethanol] | > 10000 | < 10000 | ≤ 100 | 100 to 1000 |  |
| NC1(c2ccc(-c3oc4nccnc4c3-c3ccccc3)cc2)CCC1 [Example 10, 1-(4-(7-Phenylfuro[2,3-b]pyrazin-6-yl)phenyl)cyclobutanamine.HCl] | > 10000 | < 10000 | 1000 to 10000 | 1000 to 10000 |  |
| CSc1ncc2c(-c3ccccc3)c(-c3ccc(C4(N)CCC4)cc3)oc2n1 [Example 24, 1-(4-(2-(Methylthio)-5-phenylfuro[2,3-d]pyrimidin-6-yl)phenyl)cyclobutanamine] | > 10000 | < 10000 | 1000 to 10000 | 100 to 1000 |  |
| CSc1nc2oc(-c3ccc(C4(N)CCC4)cc3)c(-c3ccccc3)c2c(=O)[nH]1 [Example 15, 6-(4-(1-Aminocyclobutyl)phenyl)-2-(methylthio)-5-phenylfuro[2,3-d]pyrimidin-4(3H)-one] | 1000 to 10000 |  | 100 to 1000 | 100 to 1000 | inhibition of AKT phosphorylation |
| NC1(c2ccc(-c3oc4nc[nH]c(=O)c4c3-c3ccccc3)cc2)CCC1 [Example 12, 6-(4-(1-Aminocyclobutyl)phenyl)-5-phenylfuro[2,3-d]pyrimidin-4(3H)-one] | 1000 to 10000 | < 10000 | 1000 to 10000 | 1000 to 10000 |  |
| NC1(c2ccc(-c3oc4ccncc4c3-c3ccccc3)cc2)CCC1 [Example 1, 1-(4-(3-phenylfuro[3,2-c]pyridin-2-yl)phenyl)cyclobutanamine] | 1000 to 10000 | < 10000 | 1000 to 10000 | 1000 to 10000 |  |
| COc1nc(N2CCNCC2)nc2oc(-c3ccc(C4(N)CCC4)cc3)c(-c3ccccc3)c12 [Example 37, 1-(4-(4-Methoxy-5-phenyl-2-(piperazin-1-yl)furo[2,3-d]pyrimidin-6-yl)phenyl)cyclobutanamine] | 1000 to 10000 | < 10000 | 100 to 1000 | 100 to 1000 |  |
